Measurements taken from ChEMBL document CHEMBL1201862, “PubChem BioAssay data set” (2004).
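1) Cells in 96-well plates. 2) Compound, 48 h, 5 concentrations. 3) Linear interpolation between surrounding doses. 4) Unreached endpoint = highest concentration. Here, GI50 denotes the concentration required for 50% inhibition of growth.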 Activity calls are given as the source filed them. Rule as the data show it: active = GI50 up to about 1.1 µM and inactive = higher.

Legend:
Test in all cases: growth of human tumour cells (NCI), 48 h
786-0 = tested on: 786-0
A498 = tested on: A498
A549 = tested on: A549
ACHN = tested on: ACHN
BT-549 = tested on: BT-549
CAKI-1 = tested on: CAKI-1
CCRF-CEM = tested on: CCRF-CEM
COLO 205 = tested on: COLO 205
DU-145 = tested on: DU-145
EKVX = tested on: EKVX
HCC 2998 = tested on: HCC 2998
HCT-116 = tested on: HCT-116
HCT-15 = tested on: HCT-15
HL-60 = tested on: HL-60
HOP-62 = tested on: HOP-62
HOP-92 = tested on: HOP-92
HT-29 = tested on: HT-29
Hs-578T = tested on: Hs-578T
IGROV-1 = tested on: IGROV-1
K562 = tested on: K562
KM12 = tested on: KM12
LOX IMVI = tested on: LOX IMVI
M14 = tested on: M14
MCF7 = tested on: MCF7
MDA-MB-231 = tested on: MDA-MB-231
MDA-MB-435 = tested on: MDA-MB-435
MDA-N = tested on: MDA-N
MOLT-4 = tested on: MOLT-4
Malme-3M = tested on: Malme-3M
NCI-H23 = tested on: NCI-H23
NCI-H460 = tested on: NCI-H460
NCI-H522 = tested on: NCI-H522
NCI/ADR-RES = tested on: NCI/ADR-RES
OVCAR-3 = tested on: OVCAR-3
OVCAR-4 = tested on: OVCAR-4
OVCAR-5 = tested on: OVCAR-5
OVCAR-8 = tested on: OVCAR-8
PC-3 = tested on: PC-3
RPMI-8226 = tested on: RPMI-8226
RXF 393 = tested on: RXF 393
SF-268 = tested on: SF-268
SF-295 = tested on: SF-295
SF-539 = tested on: SF-539
SK-MEL-28 = tested on: SK-MEL-28
SK-MEL-2 = tested on: SK-MEL-2
SK-MEL-5 = tested on: SK-MEL-5
SK-OV-3 = tested on: SK-OV-3
SN12C = tested on: SN12C
SNB-19 = tested on: SNB-19
SNB-75 = tested on: SNB-75
SR = tested on: SR
SW-620 = tested on: SW-620
T47D = tested on: T47D
TK-10 = tested on: TK-10
U-251 = tested on: U-251
UACC-257 = tested on: UACC-257
UACC-62 = tested on: UACC-62
UO-31 = tested on: UO-31

For `CC(=O)Oc1ccc(C2SCc3nc4ccccc4n32)cc1` (stereo not given), which GI50 (786-0) is on record?
Its GI50 is 39.4 µM (inactive).

And the GI50 (A498)?
The GI50 was 27.2 µM (inactive).

What about the GI50 (A549) of the same compound?
The GI50 was 32.2 µM (inactive).

And the GI50 (ACHN)?
The GI50 was 30.8 µM (inactive).

And the GI50 (BT-549)?
The GI50 was 6.4 µM (inactive).

And the GI50 (CAKI-1)?
The GI50 was 24.4 µM (inactive).

What about the GI50 (CCRF-CEM) of the same compound?
The GI50 was 26.5 µM (inactive).

And the GI50 (COLO 205)?
Its GI50 is 19.3 µM (inactive).

And the GI50 (DU-145)?
Its GI50 is 51.5 µM (inactive).

What about the GI50 (EKVX) of the same compound?
The GI50 was 26.9 µM (inactive).

What about the GI50 (HCC 2998) of the same compound?
The GI50 was 33 µM (inactive).

And the GI50 (HCT-116)?
Its GI50 is 23.3 µM (inactive).

What about the GI50 (HCT-15) of the same compound?
Its GI50 is 25.8 µM.

What about the GI50 (HL-60) of the same compound?
Its GI50 is 10.6 µM (inactive).

And the GI50 (HOP-62)?
The GI50 was 41 µM (inactive).

And the GI50 (HOP-92)?
Its GI50 is 25.2 µM (inactive).

And the GI50 (HT-29)?
The GI50 was 23.3 µM (inactive).

What about the GI50 (Hs-578T) of the same compound?
Its GI50 is 32.5 µM (inactive).

What about the GI50 (IGROV-1) of the same compound?
The GI50 was 30.7 µM (inactive).

What about the GI50 (K562) of the same compound?
Its GI50 is 7.23 µM (inactive).

What about the GI50 (KM12) of the same compound?
Its GI50 is 15.3 µM (inactive).

And the GI50 (LOX IMVI)?
Its GI50 is 29.6 µM (inactive).

What about the GI50 (M14) of the same compound?
The GI50 was 48.6 µM (inactive).

What about the GI50 (MCF7) of the same compound?
The GI50 was 8 µM (inactive).

What about the GI50 (MDA-MB-231) of the same compound?
The GI50 was 27.4 µM (inactive).

And the GI50 (MDA-MB-435)?
Its GI50 is 5.48 µM (inactive).

And the GI50 (MDA-N)?
Its GI50 is 14.8 µM (inactive).

And the GI50 (MOLT-4)?
The GI50 was 16.1 µM (inactive).

What about the GI50 (Malme-3M) of the same compound?
The GI50 was 30.2 µM (inactive).

What about the GI50 (NCI-H23) of the same compound?
Its GI50 is 16.3 µM (inactive).

What about the GI50 (NCI-H460) of the same compound?
The GI50 was 41.1 µM (inactive).

What about the GI50 (NCI-H522) of the same compound?
Its GI50 is 22.8 µM (inactive).

What about the GI50 (NCI/ADR-RES) of the same compound?
Its GI50 is 14.8 µM (inactive).

What about the GI50 (OVCAR-3) of the same compound?
The GI50 was 24.4 µM (inactive).

And the GI50 (OVCAR-4)?
The GI50 was 24.4 µM (inactive).

And the GI50 (OVCAR-5)?
The GI50 was 69.5 µM (inactive).

What about the GI50 (OVCAR-8) of the same compound?
Its GI50 is 18.7 µM (inactive).

What about the GI50 (PC-3) of the same compound?
The GI50 was 24.2 µM (inactive).

And the GI50 (RPMI-8226)?
The GI50 was 14.5 µM (inactive).

What about the GI50 (RXF 393) of the same compound?
The GI50 was 24.2 µM (inactive).

What about the GI50 (SF-268) of the same compound?
Its GI50 is 21 µM (inactive).

What about the GI50 (SF-295) of the same compound?
The GI50 was 21.7 µM (inactive).

And the GI50 (SF-539)?
The GI50 was 41 µM (inactive).

And the GI50 (SK-MEL-28)?
Its GI50 is 52.7 µM (inactive).

And the GI50 (SK-MEL-2)?
The GI50 was 22.5 µM (inactive).

What about the GI50 (SK-MEL-5) of the same compound?
The GI50 was 24.7 µM (inactive).

What about the GI50 (SK-OV-3) of the same compound?
Its GI50 is 26.8 µM (inactive).

What about the GI50 (SN12C) of the same compound?
The GI50 was 49.8 µM (inactive).

And the GI50 (SNB-19)?
Its GI50 is 50.6 µM (inactive).

And the GI50 (SNB-75)?
Its GI50 is 19.9 µM (inactive).

And the GI50 (SR)?
The GI50 was 15.6 µM (inactive).

And the GI50 (SW-620)?
The GI50 was 35.8 µM (inactive).

And the GI50 (T47D)?
The GI50 was 18.3 µM (inactive).

And the GI50 (TK-10)?
The GI50 was 35.2 µM (inactive).

What about the GI50 (U-251) of the same compound?
The GI50 was 25.6 µM (inactive).

What about the GI50 (UACC-257) of the same compound?
The GI50 was 33.5 µM (inactive).

And the GI50 (UACC-62)?
The GI50 was 29.7 µM (inactive).

And the GI50 (UO-31)?
Its GI50 is 8.57 µM (inactive).

With `COC(=O)[C@@H](NC1(c2ccccc2)c2ccccc2-c2ccccc21)[C@@H](C(=O)OC)N(NC(=O)OCc1ccccc1)C(=O)OCc1ccccc1.COC(=O)[C@@H](NC1(c2ccccc2)c2ccccc2-c2ccccc21)[C@H](C(=O)OC)N(NC(=O)OCc1ccccc1)C(=O)OCc1ccccc1` as the compound, how does the GI50 (786-0) read?
The GI50 was > 100 µM (inactive).

What about the GI50 (A498) of the same compound?
The GI50 was > 100 µM (inactive).

And the GI50 (A549)?
The GI50 was > 100 µM (inactive).

What about the GI50 (ACHN) of the same compound?
The GI50 was > 100 µM (inactive).

What about the GI50 (BT-549) of the same compound?
Its GI50 is > 100 µM (inactive).

And the GI50 (CAKI-1)?
Its GI50 is > 100 µM (inactive).

And the GI50 (CCRF-CEM)?
The GI50 was > 100 µM (inactive).

And the GI50 (COLO 205)?
Its GI50 is > 100 µM (inactive).

What about the GI50 (DU-145) of the same compound?
Its GI50 is > 100 µM (inactive).

And the GI50 (EKVX)?
Its GI50 is 21.4 µM (inactive).

What about the GI50 (HCC 2998) of the same compound?
Its GI50 is 86.9 µM (inactive).

And the GI50 (HCT-116)?
The GI50 was > 100 µM (inactive).

And the GI50 (HCT-15)?
Its GI50 is greater than 100 µM.

And the GI50 (HL-60)?
Its GI50 is > 100 µM (inactive).

What about the GI50 (HOP-62) of the same compound?
The GI50 was > 100 µM (inactive).

And the GI50 (HOP-92)?
The GI50 was > 100 µM (inactive).

What about the GI50 (HT-29) of the same compound?
The GI50 was > 100 µM (inactive).

What about the GI50 (Hs-578T) of the same compound?
Its GI50 is > 100 µM (inactive).

And the GI50 (IGROV-1)?
The GI50 was > 100 µM (inactive).

What about the GI50 (K562) of the same compound?
Its GI50 is > 100 µM (inactive).

What about the GI50 (KM12) of the same compound?
The GI50 was > 100 µM (inactive).

What about the GI50 (LOX IMVI) of the same compound?
Its GI50 is > 100 µM (inactive).

And the GI50 (M14)?
Its GI50 is > 100 µM (inactive).

And the GI50 (MCF7)?
The GI50 was > 100 µM (inactive).

And the GI50 (MDA-MB-231)?
Its GI50 is > 100 µM (inactive).

What about the GI50 (MDA-MB-435) of the same compound?
The GI50 was > 100 µM (inactive).

And the GI50 (MDA-N)?
The GI50 was > 100 µM (inactive).

What about the GI50 (MOLT-4) of the same compound?
Its GI50 is > 100 µM (inactive).

And the GI50 (Malme-3M)?
The GI50 was 27.4 µM (inactive).

What about the GI50 (NCI-H23) of the same compound?
Its GI50 is > 100 µM (inactive).

And the GI50 (NCI-H460)?
The GI50 was > 100 µM (inactive).

What about the GI50 (NCI-H522) of the same compound?
Its GI50 is 29.2 µM (inactive).

And the GI50 (NCI/ADR-RES)?
The GI50 was > 100 µM (inactive).

And the GI50 (OVCAR-3)?
Its GI50 is > 100 µM (inactive).

What about the GI50 (OVCAR-4) of the same compound?
The GI50 was > 100 µM (inactive).

And the GI50 (OVCAR-5)?
The GI50 was > 100 µM (inactive).

And the GI50 (OVCAR-8)?
The GI50 was > 100 µM (inactive).

And the GI50 (PC-3)?
The GI50 was > 100 µM (inactive).

What about the GI50 (RPMI-8226) of the same compound?
Its GI50 is > 100 µM (inactive).

And the GI50 (RXF 393)?
Its GI50 is > 100 µM (inactive).

What about the GI50 (SF-268) of the same compound?
The GI50 was > 100 µM (inactive).

What about the GI50 (SF-295) of the same compound?
Its GI50 is > 100 µM (inactive).

And the GI50 (SF-539)?
The GI50 was > 100 µM (inactive).

What about the GI50 (SK-MEL-28) of the same compound?
Its GI50 is > 100 µM (inactive).

What about the GI50 (SK-MEL-2) of the same compound?
Its GI50 is > 100 µM (inactive).

And the GI50 (SK-MEL-5)?
Its GI50 is > 100 µM (inactive).

What about the GI50 (SK-OV-3) of the same compound?
Its GI50 is > 100 µM (inactive).

What about the GI50 (SN12C) of the same compound?
The GI50 was > 100 µM (inactive).

And the GI50 (SNB-19)?
The GI50 was > 100 µM (inactive).

And the GI50 (SR)?
The GI50 was > 100 µM (inactive).

And the GI50 (SW-620)?
Its GI50 is > 100 µM (inactive).

What about the GI50 (T47D) of the same compound?
Its GI50 is > 100 µM (inactive).

And the GI50 (TK-10)?
Its GI50 is > 100 µM (inactive).

What about the GI50 (U-251) of the same compound?
Its GI50 is 33.8 µM (inactive).

What about the GI50 (UACC-257) of the same compound?
Its GI50 is > 100 µM (inactive).

And the GI50 (UACC-62)?
The GI50 was > 100 µM (inactive).

And the GI50 (UO-31)?
The GI50 was > 100 µM (inactive).
